# Patent US20240139142A1, “METHOD FOR PREVENTING OR TREATING LIVER DISEASE” (priority 2022, published 2024)
# Assays:
# [1] = test system: Antimycin A-induced ROS in LX-2 cells; assay: Removal of Antimycin A-induced ROS, DHE fluorescence; assay type: cell-based; conditions: 2.5 μM PCH1152, 24 hours
# From the text: ROS was examined by DHE fluorescence, and the difference between each group was compared by Tukey's Multiple Comparison Test.
# [2] = test system: mouse xenograft model of liver hepatocellular carcinoma; assay: Safety test, median lethal dose (LD50), intravenous injection; assay type: in vivo
# Method: (§1) The mouse xenograft model of liver hepatocellular carcinoma was administered with different concentrations of PCH1152 or P1130 via intravenous injection, and the median lethal dose (LD50) was calculated by the number of death and dosage.
# [3] = as above; assay type: in vivo; conditions: in vivo, mouse
# Method: as §1
# [4] = test system: SNU-449 liver hepatocellular carcinoma cell line; assay: Western blot, apoptosis and ABCC2/Mcl-1/Twist expression; assay type: cell-based; conditions: low concentration
# [5] = test system: SNU-449 liver hepatocellular carcinoma cell line; assay: Western blot of apoptosis markers (cleaved caspase 8, cleaved PARP); assay type: cell-based; conditions: 0.3 μM, 0, 24, 48 and 72 hours
# Method: SNU-449 liver hepatocellular carcinoma cell line was treated by 0.3 μM isothiocyanate structural modified compounds P1130 and PCH1152, and natural isothiocyanate compound PEITC, and the control group was treated by DSMO. After extracting the proteins in the cells at different time points, such as 0, 24, 48 and 72 hours, analysis and comparison were performed by using western blot. […] The results represent that the two structural modified compounds described above effectively promoted the apoptosis of the liver hepatocellular carcinoma cells (FIG. 1).
# [6] = test system: liver hepatocellular carcinoma cell line Mahlavu; assay: MTS analysis, growth inhibition (GI50); assay type: cell-based; conditions: read-out: GI50, Mahlavu liver hepatocellular carcinoma cell line
# [7] = test system: Mahlavu liver hepatocellular carcinoma cell line subcutaneous tumor; assay: Mouse xenograft model, oral PCH1152; assay type: in vivo, nude mice; conditions: 0.6 mg/mouse/day orally
# Method: Seven days after subcutaneously injecting 1×10^6 Mahlavu liver hepatocellular carcinoma cell line into nude mice, PCH1152 (0.6 mg/mouse/day) began to be orally administered to the mice. After continuously administrating the drug orally for 45 days, the mice were sacrificed and their subcutaneous tumor were taken and analyzed.
# [8] = test system: liver hepatocellular carcinoma cell line with Nexavar drug resistance; assay: Protein expression and apoptosis in drug-resistant cell line; assay type: cell-based
# From the text: WT: wild-type liver hepatocellular carcinoma cell line. R: Nexavar-drug resistance-liver hepatocellular carcinoma cell line.
# After treating liver hepatocellular carcinoma cell line with Nexavar drug resistance by PCH1130 or PCH1152, the expressions of molecules such as USP22, ABCC1, ABCC2 and Twist in liver hepatocellular carcinoma may be decreased, and the expressions of cleaved Caspase-8 and PARP may be increased, which induced the apoptosis of liver hepatocellular carcinoma cells.
# [9] = test system: liver tumor in Hepatitis B virus (HBV) transgenic mouse; assay type: in vivo
# Method: To examine the incidence rate of mouse liver tumor under long-term PCH1152 administration, PCH1152 was added into the drinking water of the mice when the mice were three-month-old, and the drinking water was replaced every 7 to 14 days. The termination of the experiment was set at 19 months, and the blood of the mice started to be collected every 2 to 3 months when the mice were 9-month-old, and the ALT values of the serum were measured. When the ALT of the serum were higher than 150 U/L twice in a row, the mice were sacrificed and the developments of the liver tumors thereof were observed.
# [10] = test system: liver hepatocellular carcinoma cell line SNU-449; assay: MTS assay cell growth, selectivity test; assay type: cell-based
# [11] = test system: human normal liver cell line THLE-2; assay: Western blot, apoptosis and ABCC2/Mcl-1/Twist expression; assay type: cell-based; conditions: low concentration
# [12] = test system: SNU-449 liver hepatocellular carcinoma cell line; assay: Expression of ABCC2, Twist and Mcl-1 after treatment; assay type: cell-based; conditions: 2.5 μM, 64 hours
# From the text: (§2) The process of trans-differentiating epithelial cells into motile mesenchymal cells is called epithelial-mesenchymal transition (EMT). EMT is indispensable in development, wound healing and stem cell behavior, and may induce fibrosis and carcinogenesis pathologically. In addition, EMT plays an important role in liver fibrosis, liver cirrhosis and liver hepatocellular carcinoma. […] Moreover, EMT may increase the anti-apoptosis effect, which will result in the development of drug resistance in cancer treatment, and induce the development of stemness of the cancer cells, as well as increase the number of cancer stem cells. The cancer stem cell is one of the important factors in the progression, recurrence, metastasis and drug resistance of the cancer. There is an evidence that in the samples of the liver hepatocellular carcinoma patients with poor prognosis, the overexpressions of Twist and Snail were observed. […] The results above represent that isothiocyanate structural modified compound of the present disclosure may prevent liver carcinogenesis and the growth, invasion, metastasis, progression and recurrence of liver hepatocellular carcinoma via inhibiting epithelial-mesenchymal transition, anti-apoptosis and/or inhibiting drug resistance.
# [13] = test system: Mahlavu liver hepatocellular carcinoma cell line; assay: as above; assay type: cell-based; conditions: 2.5 μM, 64 hours
# From the text: as §2
# [14] = assay type: physicochemical; conditions: after 16 days
# [15] = test system: hepatic lipid accumulation and fibrosis in HBV transgenic mouse liver; assay: Oil Red and Sirius Red staining of liver tissue; assay type: in vivo; conditions: treated mice without liver hepatocellular carcinoma vs control group
# [16] = test system: liver hepatocellular carcinoma cell line SNU-449; assay: MTS analysis, growth inhibition (GI50); assay type: cell-based
# [17] = test system: Hepatitis B virus-induced ROS in Huh-7 cells; assay: Removal of HBV-induced ROS, DHE fluorescence; assay type: cell-based, human; conditions: Huh-7 transfected with pGEM C12, 5 μM PCH1152, 10 μM NAC
# Method: To examine the effect of PCH1152, NAC or the combination thereof on removing HBV-induced ROS, the Huh-7 cells were remained untreated, or treated with 5 μM PCH1152, 10 μM NAC or 5 μM PCH 1152 plus 10 μM NAC. The ROS was examined by DHE fluorescence, and the difference between each group was compared by Tukey's Multiple Comparison Test.
# [18] = test system: P62 and LC3B in HBV transgenic mouse liver tissue; assay: Autophagy markers in liver tissue, western blot; assay type: in vivo
# Method: The liver tissues of the mice with or without liver hepatocellular carcinoma in the example 7 were analyzed by western blot (FIG. 8A), and quantitative analysis was performed via Image J software (FIG. 8B). P62 protein accumulated in the cells when the autophagy was forbidden, and it was degraded when the autophagy started-up. Therefore, P62 protein may be a biomarker of autophagy. […] Moreover, LC3B protein is the subunit of the microtubule-related protein, which has different protein isomers. After the autophagy being started, LC3B I isomer will be transformed into LC3B II isomer. […] The results above indicate that PCH1152 may enhance autophagy, i.e. may inhibit abnormal “anti-autophagy” effect, thereby preventing the development of liver hepatocellular carcinoma. **p<0.01; ***p<0.001; unpaired t-test.
# [19] = test system: human normal liver cell line THLE-2; assay: MTS assay cell growth, selectivity test; assay type: cell-based
# From the text: Preferable small molecule anticancer drugs must have higher selectivity to cancer cells, thereby reducing the toxicity and side effects in the normal cells and the dosage being taken. The selectivity of isothiocyanate structural modified compound of the present disclosure to liver hepatocellular carcinoma cells was examined by using human normal liver cell line THLE-2 and liver hepatocellular carcinoma cell line SNU-449. After treating liver hepatocellular carcinoma cell line and normal liver cell line by isothiocyanate structural modified compounds P1130 or PCH1152, the cell growth was evaluated by MTS assay.
# [20] = long-term treatment in drinking water
smiles,measurement,setting,value
Oc1ccc(CCN=C=S)cc1 [PCH1152],Antimycin A-induced ROS increasement,[1],significantly reduce
same,"toxicity relative to existing anticancer drug, e.g. Taxotere",[2],comparable
same,LD50,[3],30 to 100 mg/kg
same,apoptosis of liver hepatocellular carcinoma cell line,[4],promote apoptosis
same,"expressions of ABCC2, Mcl-1 and Twist",[4],inhibit the expressions
same,expression levels of cleaved caspase 8 and cleaved PARP,[5],significantly increased
same,GI50,[6],1540 nM
same,death of mice during the experiment,[7]; 45 days,No mouse dead
same,effect on daily food intake,[7]; 45 days,did not have any significant effect
same,effect on mouse weight,[7]; 45 days,did not have any significant effect
same,value of ALT in the mouse,[7]; 45 days,decrease
same,subcutaneous tumor volume,"[7]; 45 days, vs control group",significantly smaller
same,"expressions of ABCC1, USP22 and Mcl-1 in subcutaneous tumor",[7]; western blot,significant lower
same,effect on drug resistance in liver hepatocellular carcinoma,[8],reversing the drug resistance
same,"expressions of USP22, ABCC1, ABCC2 and Twist",[8],decreased
same,expressions of cleaved Caspase-8 and PARP,[8],increased
same,reduction of the incidence rate of liver tumor,[9]; compared to control group,more than 30%
same,age at which serum ALT increased to over 150 U/L in 50% of the mice,[9]; control group 19.5-month old,21 month old
same,volume of the liver tumor,[9]; long-term treatment,significantly decrease
same,weight of the liver tumor,[9]; long-term treatment,significantly decrease
same,impact on daily food intake,[9]; [20],did not have any significant impact
same,impact on daily water intake,[9]; [20],did not have any significant impact
same,impact on weight,[9]; [20],did not have any significant impact
same,cell viability of liver hepatocellular carcinoma cell line,"[10]; MTS assay, SNU-449",substantially decreased
same,selectivity between liver hepatocellular carcinoma cell and normal liver cell,"[10]; SNU-449 vs THLE-2, MTS assay",better cell growth inhibition selectivity
same,"apoptosis promotion and inhibition of ABCC2, Mcl-1, Twist in human normal liver cell line",[11],no such effect
same,"expressions of ABCC2, Twist and Mcl-1",[12],inhibition
same,"expressions of ABCC2, Twist and Mcl-1",[13],inhibition
same,structural stability in the drinking water of the mice,[14],higher than 98%
same,region of the lipid accumulation in liver tissue,[15]; Oil Red,reduced significantly
same,region of fibrosis in liver tissue,[15]; Sirius Red,reduced significantly
same,GI50,"[16]; Homo sapiens, SNU-449, read-out: GI50, SNU-449 liver hepatocellular carcinoma cell line",890 nM
same,increase of the ability of inhibiting the growth of the liver hepatocellular carcinoma cell line,[16]; compared to natural isothiocyanate compounds BITC or PEITC,12 times
same,HBV-induced ROS increasement,[17],significantly reduce
same,effect on autophagy,[18]; liver tissue,significantly enhance autophagy
same,P62 protein in liver tissue (ratio of P62 and Hsc70),"[18]; treated mouse without carcinoma vs mouse developing carcinoma, western blot",significantly lower
same,ratio of LC3B II and LC3B I,"[18]; vs control group, western blot",higher
same,effect on cell viability of human normal liver cell line,[19],not significant
